In patent US10894941B2, “Microfluidic multi-well-based cell culture testing device” (QUANTA MATRIX CO,. LTD., priority 2013, dated 2021) one finds susceptibility and MIC data, which are given here for three molecules.

Type in all cases: cell-based
The test system of test [1] is E. faecalis ATCC 29212. As to the kind of experiment: double infection imaging in MAC chip, antibiotic susceptibility. The conditions noted are these: gentamicin 32 μg/mL, erythromycin 8 μg/mL; 3 h incubation; 2% agarose. Here is the method:
(§1) The experimental conditions are as follows: • Strains • E. coli ATCC 25922 (rod-shaped strain) • E. faecalis ATCC 29212 (spherical strain) • Antibiotics • Gentamicin (concentration: 32 μg/mL)
(§2) […] At this time, the coexistence of the rod-shaped bacteria and the spherical bacteria was confirmed. It could also be confirmed whether double infection with the bacteria occurred.

For test [2], the system named is E. coli ATCC 25922. The description is as above. The settings on record: gentamicin 32 μg/mL, erythromycin 8 μg/mL; 3 h incubation; 2% agarose. On the procedure: as §1, §2
The subject of test [3] is E. faecalis strain. As to the kind of experiment: antibiotic susceptibility testing (MIC) using the MAC chip. The conditions noted are these: agarose, 37° C., 4-h incubation. Here is the method: For this experiment, an E. faecalis solution was homogenized with liquid agarose and was injected into the chip. The agarose was gelled at room temperature. Thereafter, liquid penicillin as an antibiotic was injected into the well spaces. The chip was then incubated at an incubator at 37° C. and the results were observed after 4-h incubation.
The MIC of penicillin (2 μg/ml) could be obtained in 4 hours. In contrast, according to micro-dilution testing (MDT), a much longer time (18 hours) was consumed to obtain the MIC of penicillin.

Take `CC[C@H]1OC(=O)[C@H](C)[C@@H](O[C@H]2C[C@@](C)(OC)[C@@H](O)[C@H](C)O2)[C@H](C)[C@@H](O[C@@H]2O[C@H](C)C[C@H](N(C)C)[C@H]2O)[C@](C)(O)C[C@@H](C)C(=O)[C@H](C)[C@@H](O)[C@]1(C)O` [Erythromycin]: the susceptibility entry in test [1] and in test [2] was “Susceptible to E. faecalis ATCC 29212 only” in each case. With Gentamicin, the susceptibility entry in test [1] and in test [2] was “MICs are in the susceptible range for both strains” in each case. For penicillin, the MIC in test [3] is 2 µg/mL.

A word on the MIC: it is the lowest concentration found to suppress growth. High values mean weaker potency, low ones greater potency.
